Measurements taken from ChEMBL document CHEMBL2434953, “Safe and easy route for the synthesis of 1,3-dimethyl-1,2,3-triazolium salt and investigation of its anticancer activities” (2013).

What was measured:
Format in all cases: functional
[1] = tested on: SK-MEL-5; test: Growth inhibition of human SK-MEL-5 cells after 48 hrs by sulforhodamine B assay; conditions: SK-MEL-5, 48 h
[2] = tested on: SNB-19; test: Growth inhibition of human SNB19 cells after 48 hrs by sulforhodamine B assay; conditions: SNB-19, 48 h
[3] = tested on: SW-620; test: Growth inhibition of human SW620 cells after 48 hrs by sulforhodamine B assay; conditions: SW-620, 48 h
[4] = tested on: SF-295; test: Growth inhibition of human SF295 cells after 48 hrs by sulforhodamine B assay; conditions: SF-295, 48 h
[5] = Growth inhibition of human HCC2998 cells after 48 hrs by sulforhodamine B assay; conditions: HCC 2998, 48 h
[6] = tested on: HOP-62; test: Growth inhibition of human HOP62 cells after 48 hrs by sulforhodamine B assay; conditions: HOP-62, 48 h
[7] = tested on: UACC-257; test: Growth inhibition of human UACC257 cells after 48 hrs by sulforhodamine B assay; conditions: UACC-257, 48 h
[8] = tested on: SK-MEL-28; test: Growth inhibition of human SK-MEL-28 cells after 48 hrs by sulforhodamine B assay; conditions: SK-MEL-28, 48 h
[9] = tested on: M14; test: Growth inhibition of human M14 cells after 48 hrs by sulforhodamine B assay; conditions: M14, 48 h
[10] = tested on: LOX IMVI; test: Growth inhibition of human LOXIMVI cells after 48 hrs by sulforhodamine B assay
[11] = tested on: SNB-75; test: Growth inhibition of human SNB75 cells after 48 hrs by sulforhodamine B assay; conditions: SNB-75, 48 h
[12] = tested on: NCI-H226; test: Growth inhibition of human NCI-H226 cells after 48 hrs by sulforhodamine B assay; conditions: NCI-H226, 48 h
[13] = tested on: SF-268; test: Growth inhibition of human SF268 cells after 48 hrs by sulforhodamine B assay; conditions: SF-268, 48 h
[14] = tested on: HCT-15; test: Growth inhibition of human HCT15 cells after 48 hrs by sulforhodamine B assay; conditions: HCT-15, 48 h
[15] = tested on: HT-29; test: Growth inhibition of human HT-29 cells after 48 hrs by sulforhodamine B assay; conditions: HT-29, 48 h
[16] = tested on: U-251; test: Growth inhibition of human U251 cells after 48 hrs by sulforhodamine B assay; conditions: U-251, 48 h
[17] = tested on: NCI-H522; test: Growth inhibition of human NCI-H522 cells after 48 hrs by sulforhodamine B assay; conditions: NCI-H522, 48 h
[18] = tested on: HCT-116; test: Growth inhibition of human HCT116 cells after 48 hrs by sulforhodamine B assay; conditions: HCT-116, 48 h
[19] = tested on: Malme-3M; test: Growth inhibition of human MALME-3M cells after 48 hrs by sulforhodamine B assay
[20] = tested on: COLO 205; test: Growth inhibition of human COLO205 cells after 48 hrs by sulforhodamine B assay; conditions: COLO 205, 48 h
[21] = tested on: SK-MEL-2; test: Growth inhibition of human SK-MEL-2 cells after 48 hrs by sulforhodamine B assay; conditions: SK-MEL-2, 48 h
[22] = tested on: NCI-H322M; test: Growth inhibition of human NCI-H322M cells after 48 hrs by sulforhodamine B assay
[23] = tested on: NCI-H23; test: Growth inhibition of human NCI-H23 cells after 48 hrs by sulforhodamine B assay; conditions: NCI-H23, 48 h
[24] = tested on: A549; test: Growth inhibition of human A549 cells after 48 hrs by sulforhodamine B assay; conditions: A549, 48 h
[25] = tested on: SF-539; test: Growth inhibition of human SF539 cells after 48 hrs by sulforhodamine B assay; conditions: SF-539, 48 h
[26] = tested on: MDA-MB-435; test: Growth inhibition of human MDA-MB-435 cells after 48 hrs by sulforhodamine B assay; conditions: MDA-MB-435, 48 h
[27] = tested on: NCI-H460; test: Growth inhibition of human NCI-H460 cells after 48 hrs by sulforhodamine B assay; conditions: NCI-H460, 48 h
[28] = tested on: KM12; test: Growth inhibition of human KM12 cells after 48 hrs by sulforhodamine B assay; conditions: KM12, 48 h
[29] = Growth inhibition of human EKVX cells after 48 hrs by sulforhodamine B assay

GI50 [1]: 380 nM | GI50 [3]: 1150 nM | GI50 [8]: 1610 nM | GI50 [12]: 510 nM | GI50 [14]: 1610 nM | GI50 [15]: 1140 nM | GI50 [16]: 1270 nM | GI50 [17]: 1410 nM | GI50 [18]: 680 nM | GI50 [20]: 1010 nM | GI50 [21]: 1570 nM | GI50 [22]: 280 nM | GI50 [23]: 620 nM | GI50 [24]: 320 nM | GI50 [26]: 200 nM | GI50 [27]: 300 nM
Structure (SMILES): Cn1n[n+](C)c2c1C(=O)c1ccccc1C2=O
GI50 [2]: 1590 nM | GI50 [4]: 1050 nM | GI50 [5]: 1240 nM | GI50 [6]: 1540 nM | GI50 [7]: 1790 nM | GI50 [9]: 680 nM | GI50 [10]: 500 nM | GI50 [11]: 1680 nM | GI50 [13]: 950 nM | GI50 [19]: 150 nM | GI50 [25]: 1350 nM | GI50 [28]: 790 nM | GI50 [29]: 1210 nM
